Measurements as given in PubChem BioAssay AID1963429 (Molecular Pharmacology Branch, DTP, NCI, 2024).
pIC50: −log10 of the molar value.

System: 126254-015-R-J1-PDC complex spheroid growth, % test/control
Assay: Anticancer human tumor 126254-015-R-J1-PDC patient-derived soft tissue sarcoma cell line growth inhibition [Asc]
Details: for pIC50: curve of first compound; for viability, T/C: stronger effect = lower value
Summary of the method: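 Complex solid-tumor spheroids incorporating human endothelial and mesenchymal stem cells received single agents or combinations over half-log dilution ranges anchored to clinical Cmax.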
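Note: spheroids exposed to compound for seven days.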
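Throughout, for viability, T/C: 100% = DMSO vehicle control wells.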

## C=CC(=O)N1CCN(c2nc(=O)n(-c3c(C)ccnc3C(C)C)c3nc(-c4c(O)cccc4F)c(F)cc23)C(C)C1 (stereo not given) + CNC(C)C(=O)NC1CN(S(=O)(=O)c2cccc(S(=O)(=O)N3CCC4CCC(C(=O)NC(c5ccccc5)c5ccccc5)N4C(=O)C(NC(=O)C(C)NC)C3)c2)CCC2CCC(C(=O)NC(c3ccccc3)c3ccccc3)N2C1=O
Second compound 0.01 µM
  pIC50: < 5.00
Second compound 0.0316 µM
  pIC50: < 5.00
Second compound 0.1 µM
  pIC50: < 5.00
Second compound 0.316 µM
  pIC50: < 5.00
Second compound 1 µM
  pIC50: < 5.00
Second compound 0.01 µM, first compound 0.0316 µM
  viability, T/C: 94.4%
Second compound 0.01 µM, first compound 0.1 µM
  viability, T/C: 99.5%
Second compound 0.01 µM, first compound 0.316 µM
  viability, T/C: 94.5%
Second compound 0.01 µM, first compound 1 µM
  viability, T/C: 110%
Second compound 0.01 µM, first compound 3.16 µM
  viability, T/C: 101%
Second compound 0.01 µM, first compound 10 µM
  viability, T/C: 82.3%
Second compound 0.0316 µM, first compound 0.0316 µM
  viability, T/C: 85.1%
Second compound 0.0316 µM, first compound 0.1 µM
  viability, T/C: 84.8%
Second compound 0.0316 µM, first compound 0.316 µM
  viability, T/C: 86.7%
Second compound 0.0316 µM, first compound 1 µM
  viability, T/C: 84.2%
Second compound 0.0316 µM, first compound 3.16 µM
  viability, T/C: 87.1%
Second compound 0.0316 µM, first compound 10 µM
  viability, T/C: 75.2%
Second compound 0.1 µM, first compound 0.0316 µM
  viability, T/C: 70.7%
Second compound 0.1 µM, first compound 0.1 µM
  viability, T/C: 78%
Second compound 0.1 µM, first compound 0.316 µM
  viability, T/C: 81.5%
Second compound 0.1 µM, first compound 1 µM
  viability, T/C: 75.7%
Second compound 0.1 µM, first compound 3.16 µM
  viability, T/C: 82.7%
Second compound 0.1 µM, first compound 10 µM
  viability, T/C: 67.3%
Second compound 0.316 µM, first compound 0.0316 µM
  viability, T/C: 69.2%
Second compound 0.316 µM, first compound 0.1 µM
  viability, T/C: 77.2%
Second compound 0.316 µM, first compound 0.316 µM
  viability, T/C: 71.5%
Second compound 0.316 µM, first compound 1 µM
  viability, T/C: 70.9%
Second compound 0.316 µM, first compound 3.16 µM
  viability, T/C: 73.9%
Second compound 0.316 µM, first compound 10 µM
  viability, T/C: 67.7%
Second compound 1 µM, first compound 0.0316 µM
  viability, T/C: 62.8%
Second compound 1 µM, first compound 0.1 µM
  viability, T/C: 72.4%
Second compound 1 µM, first compound 0.316 µM
  viability, T/C: 67.5%
Second compound 1 µM, first compound 1 µM
  viability, T/C: 72%
Second compound 1 µM, first compound 3.16 µM
  viability, T/C: 70.3%
Second compound 1 µM, first compound 10 µM
  viability, T/C: 65.5%

## CCN1C(C(=O)NC23CCC(C(=O)O)(CC2)CC3)C(c2cccc(Cl)c2F)C2(C(=O)Nc3cc(Cl)ccc32)C12CCCCC2 (stereo not given) + CNC(C)C(=O)NC1CN(S(=O)(=O)c2cccc(S(=O)(=O)N3CCC4CCC(C(=O)NC(c5ccccc5)c5ccccc5)N4C(=O)C(NC(=O)C(C)NC)C3)c2)CCC2CCC(C(=O)NC(c3ccccc3)c3ccccc3)N2C1=O
Second compound 0.01 µM
  pIC50: < 5.52
Second compound 0.0316 µM
  pIC50: < 5.52
Second compound 0.1 µM
  pIC50: < 5.52
Second compound 0.316 µM
  pIC50: < 5.52
Second compound 1 µM
  pIC50: < 5.52
Second compound 0.01 µM, first compound 0.00949 µM
  viability, T/C: 88.3%
Second compound 0.01 µM, first compound 0.03 µM
  viability, T/C: 86.9%
Second compound 0.01 µM, first compound 0.0949 µM
  viability, T/C: 87.7%
Second compound 0.01 µM, first compound 0.3 µM
  viability, T/C: 77.1%
Second compound 0.01 µM, first compound 0.949 µM
  viability, T/C: 79.8%
Second compound 0.01 µM, first compound 3 µM
  viability, T/C: 81.2%
Second compound 0.0316 µM, first compound 0.00949 µM
  viability, T/C: 74.4%
Second compound 0.0316 µM, first compound 0.03 µM
  viability, T/C: 69.4%
Second compound 0.0316 µM, first compound 0.0949 µM
  viability, T/C: 70.2%
Second compound 0.0316 µM, first compound 0.3 µM
  viability, T/C: 74.5%
Second compound 0.0316 µM, first compound 0.949 µM
  viability, T/C: 66.4%
Second compound 0.0316 µM, first compound 3 µM
  viability, T/C: 72.3%
Second compound 0.1 µM, first compound 0.00949 µM
  viability, T/C: 66%
Second compound 0.1 µM, first compound 0.03 µM
  viability, T/C: 70%
Second compound 0.1 µM, first compound 0.0949 µM
  viability, T/C: 67.4%
Second compound 0.1 µM, first compound 0.3 µM
  viability, T/C: 64.6%
Second compound 0.1 µM, first compound 0.949 µM
  viability, T/C: 67.7%
Second compound 0.1 µM, first compound 3 µM
  viability, T/C: 66.5%
Second compound 0.316 µM, first compound 0.00949 µM
  viability, T/C: 54.8%
Second compound 0.316 µM, first compound 0.03 µM
  viability, T/C: 68%
Second compound 0.316 µM, first compound 0.0949 µM
  viability, T/C: 60.7%
Second compound 0.316 µM, first compound 0.3 µM
  viability, T/C: 57.2%
Second compound 0.316 µM, first compound 0.949 µM
  viability, T/C: 61%
Second compound 0.316 µM, first compound 3 µM
  viability, T/C: 73%
Second compound 1 µM, first compound 0.00949 µM
  viability, T/C: 52.8%
Second compound 1 µM, first compound 0.03 µM
  viability, T/C: 60.8%
Second compound 1 µM, first compound 0.0949 µM
  viability, T/C: 61.1%
Second compound 1 µM, first compound 0.3 µM
  viability, T/C: 64%
Second compound 1 µM, first compound 0.949 µM
  viability, T/C: 61.5%
Second compound 1 µM, first compound 3 µM
  viability, T/C: 63.2%
